# Reference: patent US4107424A, “1-N-[(S)-α-hydroxy-ω-aminoacyl] derivatives of 3',4'-dideoxykanamycin B and 3'-deoxykanamycin B antibiotics” (Zaidan Hojin Biseibutsu Kagaku Kenkyu Kai, priority 1972, dated 1978)
# Where two headings read alike, the source gives them in different places.
# Legend:
# [1] = tested on: Klebsiella pneumoniae type 22 #3038; experiment: Minimal inhibitory concentration, agar dilution streak method; assay type: cell-based; conditions: Klebsiella pneumoniae; nutrient agar, 37° C, 18 hours
# Experimental: (§1) *Agar Agar dilution streak method (nutrient agar, 37° C, 18 hours)
# (§2) *Agar dilution streak method (nutrient agar, 37° C, 18 hours).
# [2] = tested on: Escherichia coli K-12 ML 1629; experiment: as above; assay type: cell-based; conditions: K12ML1629, nutrient agar, 37° C, 18 hours
# Experimental: as §1, §2
# [3] = tested on: Escherichia coli K-12 LA 290 R 56; experiment: as above; assay type: cell-based; conditions: 18 h
# Experimental: as §1, §2
# [4] = tested on: Escherichia coli K-12 LA 290 R 64; experiment: as above; assay type: cell-based; conditions: nutrient agar, 37° C, 18 hours
# Experimental: as §1, §2
# [5] = tested on: Pseudomonas aeruginosa A 3; experiment: as above; assay type: cell-based; conditions: A3, nutrient agar, 37° C, 18 hours
# Experimental: as §1, §2
# [6] = tested on: Escherichia coli K-12 W 677; experiment: as above; assay type: cell-based; conditions: K12W677, nutrient agar, 37° C, 18 hours
# Experimental: as §1, §2
# [7] = tested on: Escherichia coli K-12 LA 290 R 55; experiment: as above; assay type: cell-based; conditions: 18 h
# Experimental: as §1, §2
# Escherichia coli K-12 = experiment: as above; assay type: cell-based; conditions: K12, nutrient agar, 37° C, 18 hours
# Experimental: as §1, §2
# [8] = tested on: Pseudomonas aeruginosa GN 315; experiment: as above; assay type: cell-based; conditions: GN315, nutrient agar, 37° C, 18 hours, read-out: Minimal inhibitory concentration
# Experimental: as §1, §2
# [9] = tested on: Pseudomonas aeruginosa TI-13; experiment: as above; assay type: cell-based; conditions: TI13, nutrient agar, 37° C, 18 hours
# Experimental: as §1, §2
# [10] = tested on: Escherichia coli K-12 ML 1410 R 81; experiment: as above; assay type: cell-based; conditions: 18 h
# Experimental: as §1, §2
# [11] = tested on: Pseudomonas aeruginosa No.12; experiment: as above; assay type: cell-based; conditions: nutrient agar, 37° C, 18 hours
# Experimental: as §1, §2
# [12] = tested on: Escherichia coli K-12 ML 1630; experiment: as above; assay type: cell-based; conditions: K12ML1630, nutrient agar, 37° C, 18 hours
# Experimental: as §1, §2
# [13] = tested on: Escherichia coli K-12 JR 66/W 677; experiment: as above; assay type: cell-based; conditions: Escherichia coli, 18 h
# Experimental: as §1, §2
# [14] = tested on: Staphylococcus aureus FDA 209P; experiment: as above; assay type: cell-based; conditions: FDA209P, nutrient agar, 37° C, 18 hours
# Experimental: as §1, §2
# [15] = tested on: Escherichia coli K-12 ML 1410; experiment: as above; assay type: cell-based; conditions: K12ML1410, nutrient agar, 37° C, 18 hours
# Experimental: as §1, §2
# [16] = tested on: Klebsiella pneumoniae PCI 1602; experiment: Minimum inhibitory concentration, serial dilution method; assay type: cell-based; conditions: PCI1602, nutrient agar, 37° C, 18 hours, read-out: Minimum inhibitory concentrations
# [17] = tested on: Shigella flexneri 4b JS 11811; experiment: as above; assay type: cell-based; conditions: 4BJS11811, nutrient agar, 37° C, 18 hours, read-out: Minimum inhibitory concentrations
# [18] = tested on: Staphylococcus aureus Terajima; experiment: as above; assay type: cell-based; conditions: nutrient agar, 37° C, 18 hours, read-out: Minimum inhibitory concentrations
# Proetus vulgaris OX 19 = experiment: as above; assay type: cell-based; conditions: nutrient agar, 37° C, 18 hours; read-out: Minimum inhibitory concentrations
# [19] = tested on: Salmonella enteritidis 1891; experiment: as above; assay type: cell-based; conditions: Salmonella enterica, nutrient agar, 37° C, 18 hours, read-out: Minimum inhibitory concentrations
# [20] = tested on: Corynebacterium bovis 1810; experiment: as above; assay type: cell-based; conditions: Corynebacterium bovis, 1810; nutrient agar, 37° C, 18 hours; read-out: Minimum inhibitory concentrations
# [21] = tested on: Mycobacterium smegmatis ATCC 607; experiment: Minimal inhibitory concentration, agar dilution streak method; assay type: cell-based; conditions: Mycolicibacterium smegmatis, ATCC607; nutrient agar, 37° C, 18 hours; read-out: Minimum inhibitory concentrations
# mice = experiment: Acute intravenous toxicity (LD50) in mice; conditions: in words
# Shigella sonnei JS 11746 = experiment: Minimum inhibitory concentration, serial dilution method; assay type: cell-based; conditions: JS11746, nutrient agar, 37° C, 18 hours, read-out: Minimum inhibitory concentrations
# [22] = tested on: Shigella dysenteriae JS 11910; experiment: as above; assay type: cell-based; conditions: JS11910, 18 h, read-out: Minimum inhibitory concentrations
# [23] = tested on: gram-positive and gram-negative bacteria; experiment: Antibacterial activity (in words); assay type: cell-based; conditions: various gram-positive and gram-negative bacteria, including resistant strains
# Experimental: (§3) [α]D^22 + 38°, (c 0.85, water).
# [24] = tested on: Bacillus subtilis PCI 219; experiment: Minimum inhibitory concentration, serial dilution method; assay type: cell-based; conditions: PCI219, nutrient agar, 37° C, 18 hours, read-out: Minimum inhibitory concentrations
# in vivo = conditions: mouse, iv
# [25] = tested on: Staphylococcus aureus Smith; experiment: Minimum inhibitory concentration, serial dilution method; assay type: cell-based; conditions: nutrient agar, 37° C, 18 hours, read-out: Minimum inhibitory concentrations
# [26] = tested on: Bacillus cereus ATCC 10702; experiment: as above; assay type: cell-based; conditions: ATCC10702, nutrient agar, 37° C, 18 hours, read-out: Minimum inhibitory concentrations
# Bacillus anthracis = experiment: microbe, parasite or virus in culture; assay type: cell-based; conditions: 18 h, read-out: Minimum inhibitory concentrations
# Escherichia coli NIHJ = experiment: Minimal inhibitory concentration, agar dilution streak method; assay type: cell-based; conditions: nutrient agar, 37° C, 18 hours
# Experimental: as §3, §1, §2
# [27] = tested on: Pseudomonas aeruginosa 99; experiment: as above; assay type: cell-based; conditions: nutrient agar, 37° C, 18 hours
# Experimental: as §3, §1, §2
# [28] = tested on: Escherichia coli K-12 R-5; experiment: as above; assay type: cell-based; conditions: K12R5, nutrient agar, 37° C, 18 hours
# Experimental: as §3, §1, §2
# Sarcina lutea PCI 1001 = experiment: as above; assay type: cell-based; conditions: Micrococcus luteus, PCI1001, 18 h, read-out: Minimal inhibitory concentration
# Experimental: as §3, §1, §2
# Salmonella typhosa T-63 = experiment: as above; assay type: cell-based; conditions: Salmonella enterica, nutrient agar, 37° C, 18 hours
# Experimental: as §3, §1, §2
# nucleotidyl-transferase = conditions: adenylylation of 2"-hydroxyl group with ATP; cited from earlier work
# [29] = tested on: kanamycin-resistant strains; conditions: strains producing 3'-hydroxyl phosphorylating enzyme; cited from earlier work
# [30] = read-out: Minimal inhibitory concentration
# [31] = read-out: minimum inhibitory concentrations
compound,measurement,setting,value
"NCC[C@H](O)C(=O)N[C@@H]1C[C@H](N)[C@@H](O[C@H]2O[C@H](CN)[C@@H](O)[C@H](O)[C@H]2N)[C@H](O)[C@H]1O[C@H]1O[C@H](CO)[C@@H](O)[C@H](N)[C@H]1O [AHB-kanamycin B, 1-N-[(S)-4-amino-2-hydroxybutyryl]-kanamycin B]",MIC,[1],6.25 µg/mL
same,MIC,[2]; [30],1.56 µg/mL
same,MIC,[3]; [30],0.39 µg/mL
same,MIC,[4]; [30],0.39 µg/mL
same,MIC,[5]; [30],6.25 µg/mL
same,MIC,[6]; [30],0.39 µg/mL
same,MIC,[7]; [30],1.56 µg/mL
same,MIC,Escherichia coli K-12; [30],0.78 µg/mL
same,MIC,[8],50 µg/mL
same,MIC,[9]; [30],6.25 µg/mL
same,MIC,[10]; [30],1.56 µg/mL
same,MIC,[11]; [30],6.25 µg/mL
same,MIC,[12]; [30],1.56 µg/mL
same,MIC,[13]; [30],3.12 µg/mL
same,MIC,[14]; [30],0.78 µg/mL
same,MIC,[15]; [30],3.13 µg/mL
same,MIC,[16],0.39 µg/mL
same,MIC,[17],3.12 µg/mL
same,MIC,[18],0.2 µg/mL
same,MIC,Proetus vulgaris OX 19,1.56 µg/mL
same,MIC,[19],3.12 µg/mL
same,MIC,[20],0.39 µg/mL
same,MIC,[21],0.78 µg/mL
same,toxicity,mice,low toxicity to animals and men
same,MIC,Shigella sonnei JS 11746,1.56 µg/mL
same,MIC,[22],3.12 µg/mL
same,antibacterial activity,[23],"high antibacterial activity not only against various gram-positive and gram-negative bacteria which are sensitive to kanamycins, but also against the drug-resistant strains of Escherichia coli and Pseudomonas aeruginosa"
same,MIC,[24],< 0.2 µg/mL
same,LD50,in vivo,> 100 mg/kg
same,MIC,[25],< 0.2 µg/mL
same,MIC,[26],1.56 µg/mL
same,MIC,Bacillus anthracis,< 0.2 µg/mL
same,MIC,Escherichia coli NIHJ,0.78 µg/mL
same,MIC,[27]; [30],25 µg/mL
same,MIC,[28],0.78 µg/mL
same,MIC,Sarcina lutea PCI 1001,3.13 µg/mL
same,MIC,Salmonella typhosa T-63,0.39 µg/mL
"NC[C@@H]1CC[C@@H](N)[C@@H](O[C@H]2[C@H](O)[C@@H](O[C@H]3O[C@H](CO)[C@@H](O)[C@H](N)[C@H]3O)[C@H](N)C[C@@H]2N)O1 [DKB, 3',4'-dideoxykanamycin B]",MIC,"[2]; drug-resistant strain, read-out: minimum inhibitory concentrations",3.12 µg/mL
same,MIC,[3]; [31],25 µg/mL
same,MIC,[4]; [31],25 µg/mL
same,MIC,[5]; [31],3.12 µg/mL
same,MIC,[6]; [31],1.56 µg/mL
same,MIC,[7]; [31],> 100 µg/mL
same,MIC,Escherichia coli K-12; [31],1.56 µg/mL
same,MIC,[9]; [31],3.12 µg/mL
same,MIC,[10]; [31],3.12 µg/mL
same,MIC,[11]; [31],3.12 µg/mL
same,MIC,[12]; [31],3.12 µg/mL
same,MIC,[13]; [31],100 µg/mL
same,MIC,[14]; [31],1.56 µg/mL
same,MIC,[15]; [31],1.56 µg/mL
same,inactivation by nucleotidyl-transferase,nucleotidyl-transferase,inactivate
same,activity against kanamycin-resistant strains,[29],actually effective
same,MIC,[27]; [31],12.5 µg/mL
